For 22 compounds, IC50 results are on record in patent US20060135773A1, “Trisubstituted nitrogen modulators of tyrosine phosphatases” (priority 2004, published 2006).

Where only a bound is given, the exact number is not on record here.

This experiment concerns the target T1, PTP-1B (Homo sapiens, UniProt P18031).
T1 construct: PTP-1B (purified, 1 mg/mL) as a 1:250 dilution
T1 sequence (P18031 1-321 limits assumed): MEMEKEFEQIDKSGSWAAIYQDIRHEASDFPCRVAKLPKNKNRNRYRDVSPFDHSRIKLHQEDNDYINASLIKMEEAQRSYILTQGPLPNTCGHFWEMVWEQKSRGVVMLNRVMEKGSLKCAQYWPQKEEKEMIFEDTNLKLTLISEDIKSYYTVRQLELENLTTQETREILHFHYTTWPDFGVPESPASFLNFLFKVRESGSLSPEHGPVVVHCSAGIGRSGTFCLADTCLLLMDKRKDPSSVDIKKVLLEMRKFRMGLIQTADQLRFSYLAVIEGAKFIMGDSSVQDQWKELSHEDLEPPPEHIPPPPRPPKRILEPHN
The experiment in a line: pNPP tyrosine phosphatase inhibition assay, PTP-1B. Format: biochemical. The conditions noted are these: pNPP assay, PTP-1B; read-out: Activity Class (IC50 ranges). As to the method: The compounds provided herein are evaluated for biological activity as inhibitors of PTP-1B using, for example, a pNPP assay can be used to screen compounds for tyrosine phosphatase inhibitory activity as described in the Examples.
A 5× stock of pNPP (p-nitrophenol phosphate) substrate is prepared as 50 mM pNPP in assay buffer. Various tyrosine phosphatase solutions can be prepared as follows: • PTP-1B (purified, 1 mg/mL) as a 1:250 dilution (to a final concentration of 4:g/mL); • TC-PTP (NEB, 1000 units in 100:L) as a 1:50 dilution (to a final concentration of 2U/10:L (4:g/mL)); • CD45 (Calbiochem, 20:g, 400 units in 100:L) as a 1:50 dilution (to a final concentration of 0.8U/10:L (4:g/mL)); • LAR (NEB, 1000 units in 200:L) as a 1:75 dilution (to a final concentration of 0.7U/10:L (4:g/mL)); and • PTP-β (UBI, #14-350, 10,000 units, 40:g/571:L) as a 1:17.5 dilution (to a final concentration of 10U/10:L (4:g/mL));
The compound to be tested is prepared as 1:16.7 and 1:50 dilutions from stock in a total volume of […] DMSO to give final concentrations of 626 and 200:M. The reaction mixtures are prepared in a 96-well microtiter plate (on ice) as 55:L assay buffer, 5:L of the diluted compound (to a final concentration of 31.3 and 10:M), 20:L of the pNPP substrate solution (to a final concentration of 10 mM) and 20:L PTPase in assay buffer. The reactants are mixed well, the plate placed in a water bath at 30° C. and incubated for 10 minutes. The reaction is then terminated by adding 100:L of 2M K2CO3 per well, and the absorbance is measured at 405 nm by conventional means.
Unless otherwise indicated, this assay was used to determine activity for the selected compounds whose activity is provided in Table 1.
For orientation: IC50 means the midpoint of a concentration-inhibition curve. In the case of `COc1ccccc1S(=O)(=O)N(Cc1ccc(C(F)(F)P(=O)(O)O)c(Cl)c1)Cc1ccccc1OC(C)C` [Compound 211, {[4-(difluorophosphonomethyl)-3-chlorophenyl]methyl}[(2-methoxyphenyl)sulfonyl]{[2-(methylethoxy)phenyl]methyl}amine], the IC50 fell in the range of 250 to 499 nM.

Turning to `O=P(O)(O)C(F)(F)c1ccc(CN(Cc2ccc(C(F)(F)P(=O)(O)O)cc2)S(=O)(=O)c2cccc(Oc3ccccc3)c2)cc1` [Compound 72, [(4-{[[4-(Difluoro-phosphono-methyl)-benzyl]-(3-phenoxy-benzenesulfonyl)-amino]-methyl}-phenyl)-difluoro-methyl]-phosphonic acid], the IC50 lay within 250 to 499 nM.

For `COc1ccc(OC)c(S(=O)(=O)N(Cc2ccc(C(=O)C(=O)O)cc2)Cc2ccc(S(C)(=O)=O)cc2)c1` [Compound 113, (4-{[(2,5-Dimethoxy-benzenesulfonyl)-(4-methanesulfonyl-benzyl)-amino]-methyl}-phenyl)-oxo-acetic acid], the IC50 was greater than 25000 nM.

Consider `O=C(O)c1ccc(CN(Cc2ccc(C(=O)O)cc2)S(=O)(=O)c2ccccc2)cc1` [Compound 78, 4-([Benzenesulfonyl-(4-carboxybenzyl)-amino]-methyl)-benzoic acid], for which the IC50 was greater than 25000 nM.

As to `COc1ccccc1S(=O)(=O)N(Cc1ccc(-c2cccc(C(N)=O)c2)cc1)Cc1ccc(C(F)(F)P(=O)(O)O)c(Cl)c1` [Compound 161, [(4-{[(3′-Carbamoyl-biphenyl-4-ylmethyl)-(2-methoxy-benzenesulfonyl)-amino]-methyl}-2-chloro-phenyl)-difluoro-methyl]-phosphonic acid], the IC50 was in the range of 100 to 249 nM.

Consider `COC(=O)c1ccc(CN(Cc2ccc(C(F)(F)P(=O)(O)O)c(Cl)c2)S(=O)(=O)c2ccccc2)cc1` [Compound 234, 4-({Benzenesulfonyl-[3-chloro-4-(difluoro-phosphono-methyl)-benzyl]-amino}-methyl)-benzoic acid methyl ester], for which the IC50 lay in the range of 250 to 499 nM.

On to `COc1ccccc1S(=O)(=O)N(CCc1cccc(-c2cccc(C(=O)O)c2)c1)Cc1ccc(C(F)(F)P(=O)(O)O)c(Cl)c1` [Compound 189, 3′-{2-[[3-Chloro-4-(difluoro-phosphono-methyl)-benzyl]-(2-methoxy-benzenesulfonyl)-amino]-ethyl}-biphenyl-3-carboxylic acid], for which the IC50 was 250 to 499 nM.

As for `COc1ccccc1S(=O)(=O)N(Cc1ccc(-c2cccc(C#N)c2)cc1)Cc1ccc(C(F)(F)P(=O)(O)O)c(Cl)c1` [Compound 46, [(2-Chloro-4-{[(3′-cyano-biphenyl-4-ylmethyl)-(2-methoxy-benzenesulfonyl)-amino]-methyl}-phenyl)-difluoro-methyl]-phosphonic acid], the IC50 lay within 100 to 249 nM.

Regarding `O=P(O)(O)C(F)(F)c1ccc(CN(Cc2ccc(C(F)(F)P(=O)(O)O)c(Br)c2)S(=O)(=O)c2ccc3ccccc3c2)cc1Br` [Compound 99, [(2-Bromo-4-{[[3-bromo-4-(difluoro-phosphono-methyl)-benzyl]-(naphthalene-2-sulfonyl)-amino]-methyl}-phenyl)-difluoro-methyl]-phosphonic acid], the IC50 is less than 99 nM.

As to `COc1cccc(S(=O)(=O)N(Cc2ccc(C(F)(F)P(=O)(O)O)cc2)Cc2ccc(C(F)(F)P(=O)(O)O)cc2)c1` [Compound 86, [(4-{[[4-(Difluoro-phosphono-methyl)-benzyl]-(3-methoxy-benzenesulfonyl)-amino]-methyl}-phenyl)-difluoro-methyl]-phosphonic acid], the IC50 lay in the range of 250 to 499 nM.

Turning to `O=P(O)(O)C(F)(F)c1ccc(CN(Cc2ccc(C(F)(F)P(=O)(O)O)cc2)C2CCCC2)cc1` [Compound 63, {[4-({Cyclopentyl-[4-(difluoro-phosphono-methyl)-benzyl]-amino}-methyl)-phenyl]-difluoro-methyl}-phosphonic acid], the IC50 was greater than 25000 nM.

As to `O=P(O)(O)C(F)(F)c1ccc(CN(Cc2ccc(C(F)(F)P(=O)(O)O)cc2)S(=O)(=O)c2ccc(Cl)c(Cl)c2)cc1` [Compound 77, {[4-({(3,4-Dichloro-benzenesulfonyl)-[4-(difluoro-phosphono-methyl)-benzyl]-amino}-methyl)-phenyl]-difluoro-methyl}-phosphonic acid], the IC50 is 250 to 499 nM.

With `COc1ccccc1S(=O)(=O)N(Cc1ccc(N(CC(=O)O)C(=O)C(=O)O)cc1)Cc1ccc(S(C)(=O)=O)cc1` [Compound 136, N-Carboxymethyl-N-(4-{[(4-methanesulfonyl-benzyl)-(2-methoxy-benzenesulfonyl)-amino]-methyl}-phenyl)-oxalamic acid], the IC50 was greater than 25000 nM.

Consider “{[4-(difluorophosphonomethyl)-3-chlorophenyl]methyl}[(2-methoxyphenyl)sulfonyl](3-piperidylmethyl)amine [Compound 209]”, for which the 50% inhibitory concentration (IC50) lay in the range of 2500 to 25000 nM.

Consider `O=P(O)(O)C(F)(F)c1ccc(CN(Cc2ccc(C(F)(F)P(=O)(O)O)cc2)S(=O)(=O)c2ccccc2F)cc1` [Compound 83, [(4-{[[4-(Difluoro-phosphono-methyl)-benzyl]-(2-fluoro-benzenesulfonyl)-amino]-methyl}-phenyl)-difluoro-methyl]-phosphonic acid], for which the concentration for half-maximal inhibition (IC50) lay in the range of 250 to 499 nM.

Regarding `O=P(O)(O)C(F)(F)c1ccc(CN(Cc2ccc(C(F)(F)P(=O)(O)O)cc2)c2ccccc2)cc1` [Compound 64, {[4-({[4-(Difluoro-phosphono-methyl)-benzyl]-phenyl-amino}-methyl)-phenyl]-difluoro-methyl}-phosphonic acid], the IC50 was 2500 to 25000 nM.

For the compound `O=C(NS(=O)(=O)C(F)(F)F)c1ccc(CN(Cc2ccc(Cl)c(Cl)c2)S(=O)(=O)c2ccccc2Cl)cc1Br` [Compound 95, N-(3-Bromo-4-trifluoromethanesulfonylaminocarbonyl-benzyl)-2-chloro-N-(3,4-dichloro-benzyl)-benzenesulfonamide], the IC50 is greater than 25000 nM.

Consider `COc1ccccc1S(=O)(=O)N(Cc1ccc(C(F)(F)P(=O)(O)O)c(Cl)c1)C(Cc1ccccc1)c1ccccc1` (stereo not shown) [Compound 171, [(2-Chloro-4-{[(1,2-diphenyl-ethyl)-(2-methoxy-benzenesulfonyl)-amino]-methyl}-phenyl)-difluoro-methyl]-phosphonic acid], for which the IC50 lay in the range of 2500 to 25000 nM.

With `COc1ccccc1S(=O)(=O)N(Cc1ccc(C(F)(F)P(=O)(O)O)c(Cl)c1)Cc1ccccc1Oc1ccccc1` [Compound 173, [(2-Chloro-4-{[(2-methoxy-benzenesulfonyl)-(2-phenoxy-benzyl)-amino]-methyl}-phenyl)-difluoro-methyl]-phosphonic acid], the IC50 lay within 100 to 249 nM.

For “{[4-(difluorophosphonomethyl)-3-chlorophenyl]methyl}{[2-(4-methoxyphenyl)phenyl]methyl}[(2-methoxyphenyl)sulfonyl]amine [Compound 190]”, the IC50 is less than 99 nM.

In the case of `COC(=O)c1cccc(-c2cccc(CCN(Cc3ccc(C(F)(F)P(=O)(O)O)c(Cl)c3)S(=O)(=O)c3ccccc3OC)c2)c1` [Compound 185, 3′-{2-[[3-Chloro-4-(difluoro-phosphono-methyl)-benzyl]-(2-methoxy-benzenesulfonyl)-amino]-ethyl}-biphenyl-3-carboxylic acid methyl ester], the IC50 lay in the range of 250 to 499 nM.

With “5-{4-[({[4-(difluorophosphonomethyl)-3-chlorophenyl]methyl}[(2-methoxyphenyl)sulfonyl]amino)methyl]phenyl}-2-methoxybenzoic acid [Compound 207]”, the IC50 was less than 99 nM.
